The source of these data is patent US10196357B2, “Biaryl compositions and methods for modulating a kinase cascade” (Athenex, Inc., priority 2007, dated 2019).

One series has as its system HT29 cell line. Put plainly: BrdU cell growth inhibition, HT29. The format is cell-based, human. To be noted: for GI50: read-out: GI50. A digest of the protocol:
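HT29 colon carcinoma cells treated with compounds diluted from 20 mM DMSO stocks into DMEM/10% FBS. Proliferation read as colorimetric BrdU incorporation ELISA; GI calculated relative to untreated cells at time 0 and control cells at day n, with GI50 extrapolated. Net cell loss below time-0 level scored as cytotoxicity.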

Series [1] relates to PDGF receptor tyrosine kinase Y572/574. Put plainly: PDGF receptor autophosphorylation in cells. The class given is cell-based. As to conditions: c-Src527F/NIH-3T3 cells. The procedure:
HT29 (colon cancer) and c-Src527F/NIH-3T3 (Src transformed) cell lines were treated with KX2-391 or with AstraZeneca's ATP competitive Src inhibitor AZ28. AZ28 serves as a positive comparator to show what a validated Src inhibitor should do in these assays. After treatment with compound, cells were lysed, subjected to PAGE and probed with a battery of antibodies. […] In addition, off-target protein phosphorylation was also investigated. Further, induction of apoptosis was evaluated via Caspase 3 cleavage. Multiple doses of each compound were tested because the trends in response to increasing drug concentration are the most reliable indicator of activity.
The same range of multiples of the GI50 for AZ28 in these two cell lines was run as a comparison.
This is thought not to be a direct Src substrate in cells.

Series [2] relates to lung cancer cell line A549. Put plainly: tumor growth inhibition, A549. The format is cell-based, Human. To be noted: A549 (Lung) cells. From the text: (§1) Growth Inhibition. […] T1 values≤T0 values were designated as T, cytotoxicity.
For a further series, the system named is MDA231 (Breast). Description: growth inhibition (BrdU), MDA231. The class given is cell-based, Human. As to conditions: MDA231 (Breast) cells.
Source text: as §1

The subject of the next series is c-Src 3T3 cells. Put plainly: BrdU cell growth inhibition, c-Src 3T3. The format is cell-based, mouse. To be noted: for GI50: c-Src 3T3 (c-Src527F/NIH3T3) cells, read-out: GI50. A digest of the protocol: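 c-Src 3T3 cells on poly-D-lysine plates in DMEM with 2% FBS, L-glutamine, pyruvate and 10 mM HEPES. Compounds came from 20 mM DMSO stocks diluted in DMEM/10% FBS. Proliferation was read by colorimetric BrdU-incorporation ELISA, and GI50 was extrapolated from growth relative to time-zero and untreated controls.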

The target in another series is isolated Src (Homo sapiens, UniProt P12931). Description: titration against isolated Src. The class given is biochemical. As to conditions: titration data.
isolated Src, sequence (P12931 whole entry): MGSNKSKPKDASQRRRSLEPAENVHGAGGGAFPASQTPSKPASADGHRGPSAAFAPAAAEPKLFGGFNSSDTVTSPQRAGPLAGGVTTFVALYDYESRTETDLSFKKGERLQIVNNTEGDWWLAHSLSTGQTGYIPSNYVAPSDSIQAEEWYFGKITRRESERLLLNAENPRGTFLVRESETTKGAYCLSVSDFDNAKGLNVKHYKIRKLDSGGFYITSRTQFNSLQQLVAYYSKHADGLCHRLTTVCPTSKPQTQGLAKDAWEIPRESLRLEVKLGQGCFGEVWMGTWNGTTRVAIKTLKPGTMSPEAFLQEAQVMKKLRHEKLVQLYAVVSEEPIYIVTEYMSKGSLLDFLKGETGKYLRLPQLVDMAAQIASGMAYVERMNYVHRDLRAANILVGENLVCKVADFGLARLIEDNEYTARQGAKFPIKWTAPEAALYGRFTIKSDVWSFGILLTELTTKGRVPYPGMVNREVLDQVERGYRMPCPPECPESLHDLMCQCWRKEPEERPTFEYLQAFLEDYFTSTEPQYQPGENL
Series [3] is described as follows: plasma exposure after oral administration. As to conditions: Male CD-1 mice. The class given is in vivo, male CD-1 mice. The procedure:
Plasma concentrations were measured in mice after oral administration. All doses were formulated in purified water. Four groups of male CD-1 mice were dosed after an overnight fast and fed 4 hours post-dose. Dosing was as follows:
Protein was precipitated with 0.25 mL acetonitrile for plasma, 0.25 mL for brain. After centrifugation, supernatant was directly injected into an LC/MS system. The limit of quantitation was 1 ng/mL using a 50 μL aliquot for plasma and a 50 μL, aliquot for brain. The standard curve was 1 to 1,000 ng/mL for both plasma and brain. HPLC conditions were as follows:
HPLC System: Shimadzu SCL-10 System
• Analytical Column: Aquasil C18 5 μm 100×2 mm column. • Column Temperature: Ambient temperature • Autosampler Temperature: Ambient temperature • Mobile Phase A) 10 mM Ammonium formate in water (pH 4). • B) Acetonitrile. • Flow Rate: 0.6 mL/min • Injection Volume: 2 μL • Gradient:
• Mass Spectrometry Conditions were as follows: • Instrument: ABI Sciex API 4000 • Mode: ESI+ • Experiment: MRM (multiple reaction monitoring) • Transitions: KX2-391: m/z 432.4→114.2 (Rt=3.11 minute) • KX2-361: m/z 406.1→253.2 (Rt=3.33 minute)

Series [4] in a line: body weight in GL261 glioma survival study. As to conditions: C57BL/6 mice. The class given is in vivo. The procedure: A brain tumor mouse xenograft study was conducted comparing KX2-361 and KX2-391 (KXO1) to Temodar®. The studies were conducted in C57BL/6 mice. GL261 glioma cells (1×10^5 in 5 μl DMEM) were implanted intracranial coordinates: bregma, lateral 2.0 mm, anterior 1.2 mm, 3.0 mm depth dura. Treatment was initiated 3 days post implantation. The groups were as follows (all doses in 100 μl H2O):
FIGS. 49A-E show the weight gain in each of the C57BL/6 mice in the different treatment groups. The average weight at endpoint for each of the treatment groups is shown below in Table 30. FIG. 50 is a graph showing the average weights over a 40-day period for each of the treatment groups.

Where [5] appears, read: single PO dose 10 mg/kg (Group 3), 0 hr.
Where [6] appears, read: single PO dose 10 mg/kg (Group 3), 0.5 hr.
Where [7] appears, read: single PO dose 10 mg/kg (Group 3), 1 hr.
The mark [8] stands for this setting: single PO dose 10 mg/kg (Group 3), 2 hr.
Setting [9] is: single PO dose 10 mg/kg (Group 3), 5 hr.
The mark [10] stands for this setting: single PO dose 50 mg/kg (Group 4), 0 hr.
Setting [11] is: single PO dose 50 mg/kg (Group 4), 0.5 hr.
[12] abbreviates: single PO dose 50 mg/kg (Group 4), 1 hr.
[13] abbreviates: single PO dose 50 mg/kg (Group 4), 2 hr.
Where [14] appears, read: single PO dose 50 mg/kg (Group 4), 5 hr.

Values joined by “and” are separate entries in the source; they are usually repeats but may differ in a detail not shown here. Identical values can stand only once. Like-named read-outs stand apart in the source and are kept apart here.

For the compound `O=C(Cc1ccc(-c2ccc(OCCN3CCOCC3)cc2)cn1)NCc1ccccc1` [KXO1], the GI50 in the series on HT29 cell line (HT29 (Colon) cells) was 25 nM; in series [2] it was 9.4 nM and 13 nM; in the series with MDA231 (Breast), 20 nM; with c-Src 3T3 cells, 23 nM. For the same compound, in series [1], the “PDGF receptor Y572/574 autophosphorylation” value was “not inhibited”. This compound also gave an IC50 against isolated Src of 46000 nM.
On to `O=C(Cc1ccc(-c2ccc(N3CCOCC3)cc2)cn1)NCc1cccc(F)c1` [KX2-361], for which the GI50 stood at 10 nM in the series with HT29 cell line (Homo sapiens, HT-29, HT29 (Colon) cells) and 11 nM with c-Src 3T3 cells (Mus musculus). Further, the activity at 0.05 µM in the series with HT29 cell line (Homo sapiens, HT-29, 50 nM, read-out: HT-29 Growth, % of Control Mean, n = 3) is < 0%. Besides, the activity at 0.5 µM with HT29 cell line (Homo sapiens, HT-29, 500 nM, read-out: HT-29 Growth, % of Control Mean, n = 3) is < 0%. Moreover, in the series with HT29 cell line (Homo sapiens, HT-29, 5 uM, read-out: HT-29 Growth, % of Control Mean, n = 3), the activity at 5 µM was < 0%. Also, in the series with c-Src 3T3 cells (Mus musculus, NIH3T3, 100 nM, read-out: c-Src 3T3 Growth, % of Control Mean, n = 3), the activity at 0.1 µM is < 0%. The activity at 1 µM with c-Src 3T3 cells (Mus musculus, NIH3T3, 1.0 uM, read-out: c-Src 3T3 Growth, % of Control Mean, n = 3) was < 0%. Further, in the series with c-Src 3T3 cells (Mus musculus, NIH3T3, 10 uM, read-out: c-Src 3T3 Growth, % of Control Mean, n = 3), the activity at 10 µM was < 0%. For the same compound, the “KX2-361 Plasma Concentrations, Group A” value in series [3] (setting [5]) is “BLQ (BLQ: Below Limit of Quantitation (1 ng/mL))”; in series [3] (setting [6]), 65.93 ng/mL; in series [3] (setting [7]), 284.09 ng/mL; in series [3] (setting [8]), 153.07 ng/mL; in series [3] (setting [9]), 2.63 ng/mL; in series [3] (setting [10]), “BLQ (BLQ: Below Limit of Quantitation (1 ng/mL))”. The “KX2-361 Plasma Concentrations, Group A” value came out at 1805.19 ng/mL in series [3] (setting [12]), 475.13 ng/mL in series [3] (setting [13]) and 138.53 ng/mL in series [3] (setting [14]). In addition, the “KX2-361 Plasma Concentrations, Group B” value is “BLQ (BLQ: Below Limit of Quantitation (1 ng/mL))” in series [3] (setting [5]); 217.56 ng/mL in series [3] (setting [6]); 596.31 ng/mL in series [3] (setting [7]); 118.96 ng/mL in series [3] (setting [8]); 64.15 ng/mL in series [3] (setting [9]); “BLQ (BLQ: Below Limit of Quantitation (1 ng/mL))” in series [3] (setting [10]). Moreover, the “KX2-361 Plasma Concentrations, Group B” value worked out at 2316.91 ng/mL in series [3] (setting [11]), 969.48 ng/mL in series [3] (setting [12]), 1710.13 ng/mL in series [3] (setting [13]) and 252.81 ng/mL in series [3] (setting [14]). The “KX2-361 Plasma Concentrations, Group C” value in series [3] (setting [5]) is reported as “BLQ (BLQ: Below Limit of Quantitation (1 ng/mL))”; in series [3] (setting [6]), 159.53 ng/mL; in series [3] (setting [7]) it was 398.35 ng/mL; in series [3] (setting [8]), 342.45 ng/mL; in series [3] (setting [9]), 53.18 ng/mL; in series [3] (setting [10]), “BLQ (BLQ: Below Limit of Quantitation (1 ng/mL))”. Further, the “KX2-361 Plasma Concentrations, Group C” value is given as 1587.18 ng/mL in series [3] (setting [11]), 3635.91 ng/mL in series [3] (setting [12]), 1709.02 ng/mL in series [3] (setting [13]) and 298.99 ng/mL in series [3] (setting [14]). Further, the “Average weight at endpoint” value stood at 16.9 g in series [4] (15 mg/kg) and 15.0 g in series [4] (30 mg/kg).

By GI50 is commonly meant the concentration that inhibits growth by half. The IC50 is the concentration at which inhibition is half-maximal.
